Assay results from ChEMBL document CHEMBL3797190, “Development of 3,5-Dinitrobenzylsulfanyl-1,3,4-oxadiazoles and Thiadiazoles as Selective Antitubercular Agents Active Against Replicating and Nonreplicating Mycobacterium tuberculosis” (J Med Chem, 2016).
In brackets after ≈: the same amount, converted by molar mass. Activity calls are given as the source filed them. The calls are words filed in the database; no cut-off is given here.

Tests used:
[1] = tested on: Mycobacterium tuberculosis; assay: Antimycobacterial activity against Mycobacterium tuberculosis H37Ra assessed as growth inhibition at 1 ug/ml preincubated for 1 hr followed by radiolabeling with [14C]-uracil, [14C]-methionine for 24 hrs; format: functional, organism-based
[2] = Cytotoxicity against human HepG2 cells assessed as cell viability at 50 uM after 48 hrs by MTS assay; format: cell-based; conditions: read-out: Activity
[3] = tested on: Mycobacterium tuberculosis; assay: Inhibition of RNA biosynthesis in Mycobacterium tuberculosis H37Ra assessed as reduction of [14C]-uracil incorporation at 1 ug/ml preincubated for 1 hr followed by radiolabeling with [14C]-uracil for 24 hrs by scintillation spectrometry; format: functional
[4] = Cytotoxicity against human HuH7 cells assessed as cell viability at 20 uM after 48 hrs by MTS assay; format: cell-based, Huh-7; conditions: read-out: Activity
[5] = Cytotoxicity against primary human hepatocytes assessed as cell viability at 20 uM after 48 hrs by MTS assay; format: cell-based, Hepatocyte; conditions: read-out: Activity
Mycobacterium kansasii [6] = assay: Antimycobacterial activity against Mycobacterium kansasii CNCTC My 6509/96 after 14 days by microdilution method; format: functional; conditions: CNCTC My 6509/96, 336 h
Klebsiella pneumoniae [7] = assay: Antibacterial activity against ESBL producing Klebsiella pneumoniae J 14368/08 after 24 to 48 hrs by broth microdilution method; format: functional
[8] = target: Decaprenylphosphoryl-beta-D-ribose oxidase (Mycobacterium smegmatis (strain ATCC 700084 / mc(2)155)) (UniProt A0R607); assay: Inhibition of DprE1 in mixture of Mycobacterium smegmatis MC2 155 membrane and cell envelope fractions assessed as incorporation of P[14C]RPP into [14C]-decaprenylphosphoryl arabinose up to 0.6 mM incubated for 1 hr by TLC/autoradiographic method; conditions: Mycolicibacterium smegmatis MC2 155
Decaprenylphosphoryl-beta-D-ribose oxidase (Mycobacterium smegmatis (strain ATCC 700084 / mc(2)155)), sequence (A0R607 whole entry): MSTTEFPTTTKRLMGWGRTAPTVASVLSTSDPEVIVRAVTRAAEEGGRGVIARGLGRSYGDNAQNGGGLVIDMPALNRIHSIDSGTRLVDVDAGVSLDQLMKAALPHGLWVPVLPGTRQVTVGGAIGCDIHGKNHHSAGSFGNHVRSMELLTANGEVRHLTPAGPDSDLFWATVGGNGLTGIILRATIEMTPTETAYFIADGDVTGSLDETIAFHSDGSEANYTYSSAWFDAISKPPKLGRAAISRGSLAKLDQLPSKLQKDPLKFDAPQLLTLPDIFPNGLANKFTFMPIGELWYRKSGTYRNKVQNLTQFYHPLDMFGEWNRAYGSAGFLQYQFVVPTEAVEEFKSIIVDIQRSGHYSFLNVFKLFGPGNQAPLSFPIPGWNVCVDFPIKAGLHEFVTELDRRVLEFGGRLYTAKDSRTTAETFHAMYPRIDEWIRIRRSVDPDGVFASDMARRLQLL

Mycobacterium avium [9] = assay: Antimycobacterial activity against Mycobacterium avium CNCTC My 330/88 after 14 days by microdilution method; format: functional; conditions: CNCTC My 330/88, 336 h
Klebsiella pneumoniae [10] = assay: Antibacterial activity against Klebsiella pneumoniae D 11750/08 after 24 to 48 hrs by broth microdilution method; format: functional
[11] = tested on: Staphylococcus epidermidis; assay: Antibacterial activity against Staphylococcus epidermidis H 6966/08 after 24 to 48 hrs by broth microdilution method; format: functional
[12] = tested on: Mycobacterium tuberculosis; assay: Antimycobacterial activity against non-replicating streptomycin-starved Mycobacterium tuberculosis SS18b-Lux measured at 5 mins to 6 days by luciferase assay; format: functional, organism-based
[13] = Cytotoxicity against MDCK2-MDR1 cells assessed as cell viability after 24 hrs by MTS assay; format: ADME, cell-based; conditions: Canis lupus familiaris, MDCK-II
[14] = Cytotoxicity against MDCK2-MDR1 cells assessed as cell viability at 20 uM after 48 hrs by MTS assay; format: ADME, cell-based, Canis lupus familiaris, MDCK-II; conditions: dog, read-out: Activity
[15] = Chemical stability of compound in DMSO at 100 uM after 1 month by HPLC analysis; format: physicochemical; conditions: 730.5 h
[16] = tested on: Trichophyton mentagrophytes; assay: Antifungal activity against Trichophyton mentagrophytes 445 after 72 to 120 hrs by broth microdilution method; format: functional
HeLa = assay: Cytotoxicity against human HeLa cells assessed as cell viability after 24 hrs by MTS assay; format: cell-based
Hepatocyte = assay: Cytotoxicity against primary human hepatocytes assessed as cell viability after 48 hrs by MTS assay; format: cell-based
Aspergillus fumigatus = assay: Antifungal activity against Aspergillus fumigatus 231 after 24 to 48 hrs by broth microdilution method; format: functional
[17] = Aqueous solubility of compound in water with 0.01 to 1% DMSO at 2 to 200 uM by HPLC analysis; format: physicochemical
Mycobacterium kansasii [18] = assay: Antimycobacterial activity against Mycobacterium kansasii CNCTC My 235/80 after 21 days by microdilution method; format: functional; conditions: CNCTC My 235/80, 504 h
[19] = Cytotoxicity against human HuH7 cells assessed as cell viability after 24 hrs by MTS assay; format: cell-based; conditions: Huh-7, 24 h
[20] = tested on: Mycobacterium tuberculosis H37Ra; assay: Inhibition of DprE1 in Mycobacterium tuberculosis H37Ra assessed as accumulation of trehalose dimycolate at 0.5 ug/ml preincubated for 24 hrs followed by radiolabeling with [14C]-acetate for 24 hrs by TLC/autoradiographic method
Trichosporon asahii = assay: Antifungal activity against Trichosporon asahii 1188 after 24 to 48 hrs by broth microdilution method; format: functional
Mycobacterium kansasii [21] = assay: Antimycobacterial activity against Mycobacterium kansasii CNCTC My 6509/96 after 21 days by microdilution method; format: functional; conditions: CNCTC My 6509/96, 504 h
Candida albicans = assay: Antifungal activity against Candida albicans ATCC 44859 after 24 to 48 hrs by broth microdilution method; format: functional
[22] = Cytotoxicity against human HeLa cells assessed as cell viability at 20 uM after 48 hrs by MTS assay; format: cell-based; conditions: read-out: Activity
Salmonella typhimurium [23] = assay: Mutagenic activity in Salmonella typhimurium TA100 assessed as reverse mutation at 30 uM by Ames test; format: toxicity, organism-based; conditions: salmonella enterica subsp. enterica serovar typhimurium
Staphylococcus aureus [24] = assay: Antibacterial activity against Staphylococcus aureus ATCC 6538 after 24 to 48 hrs by broth microdilution method; format: functional
Escherichia coli = assay: Antibacterial activity against Escherichia coli ATCC 8739 after 24 to 48 hrs by broth microdilution method; format: functional
HepG2 = assay: Cytotoxicity against human HepG2 cells assessed as cell viability after 48 hrs by MTS assay; format: cell-based; conditions: HepG2, 48 h
Salmonella typhimurium [25] = assay: Mutagenic activity in Salmonella typhimurium TA98 assessed as reverse mutation at 30 uM by Ames test; format: toxicity, organism-based; conditions: salmonella enterica subsp. enterica serovar typhimurium
[26] = Cytotoxicity against MDCK2-MDR1 cells assessed as cell viability at 20 uM after 24 hrs by MTS assay; format: ADME, cell-based, Canis lupus familiaris, MDCK-II; conditions: dog, read-out: Activity
Pichia kudriavzevii = assay: Antifungal activity against Candida krusei E28 after 24 to 48 hrs by broth microdilution method; format: functional
[27] = tested on: Mycobacterium tuberculosis; assay: Antimycobacterial activity against Mycobacterium tuberculosis H37Ra assessed as growth inhibition at 0.5 ug/ml preincubated for 24 hrs followed by radiolabeling with [14C]-acetate for 24 hrs; format: functional; conditions: read-out: GI
[28] = Selectivity index, ratio of IC50 for human HepG2 cells to MIC>99 for Mycobacterium tuberculosis CNCTC My 331/88; format: toxicity, cell-based; conditions: read-out: Selectivity Index
Lichtheimia corymbifera = assay: Antifungal activity against Absidia corymbifera 272 after 24 to 48 hrs by broth microdilution method; format: functional
Staphylococcus aureus [29] = assay: Antibacterial activity against methicillin-resistant Staphylococcus aureus H 5996/08 after 24 to 48 hrs by broth microdilution method; format: functional
[30] = Aqueous solubility of compound in distilled water at 0.2 mg/ml after 24 hrs by HPLC analysis; format: physicochemical
[31] = tested on: Mycobacterium tuberculosis; assay: Antimycobacterial activity against Mycobacterium tuberculosis CNCTC My 331/88 using 1 month stored compound at room temperature in DMSO after 14 to 21 days by microdilution method; format: functional, organism-based
Candida tropicalis = assay: Antifungal activity against Candida tropicalis 156 after 24 to 48 hrs by broth microdilution method; format: functional
Mycobacterium avium [32] = assay: Antimycobacterial activity against Mycobacterium avium CNCTC My 330/88 after 21 days by microdilution method; format: functional; conditions: CNCTC My 330/88, 504 h
[33] = Cytotoxicity against human HeLa cells assessed as cell viability at 20 uM after 24 hrs by MTS assay; format: cell-based; conditions: read-out: Activity

With Cc1ccc(-c2nnc(SCc3cc([N+](=O)[O-])cc([N+](=O)[O-])c3)o2)cc1 the “growth inhibition (GI)” value [1] was “Active”, the viability at 48 h, 50 µM [2] was 95.5% and the inhibition at 1 µg/mL [3] was 50%. It also gave a viability at 48 h, 20 µM [4] of 53.1%, a viability at 48 h, 20 µM [5] of 95.1% and an MIC99 (Mycobacterium kansasii [6]) of 0.06 µM (≈ 0.0223 µg/mL). For the same compound, the MIC95 (Klebsiella pneumoniae [7]) was greater than 125 µM, the inhibition [8] was “inactive” and the MIC99 (Mycobacterium avium [9]) was 8 µM (≈ 2.98 µg/mL). The MIC95 (Klebsiella pneumoniae [10]) was greater than 125 µM, the MIC95 [11] was greater than 125 µM and the Activity [12] was “Dose-dependent effect”. The IC50 [13] was greater than 20 µM, the viability at 48 h, 20 µM [14] was 48.5% and the Stability [15] was “Stable”. The MIC50 [16] was greater than 125 µM, the IC50 (HeLa) was greater than 20 µM and the IC50 (Hepatocyte) was greater than 20 µM. The MIC50 (Aspergillus fumigatus) was greater than 125 µM, the solubility kinetic [17] was 0.5 µM (≈ 0.186 µg/mL) and the MIC99 (Mycobacterium kansasii [18]) was 0.06 µM (≈ 0.0223 µg/mL). For the same compound, the IC50 [19] was greater than 20 µM, the inhibition [20] was “inactive” and the MIC80 (Trichosporon asahii) was greater than 125 µM. The MIC99 (Mycobacterium kansasii [21]) was 0.125 µM (≈ 0.0465 µg/mL), the MIC80 (Candida albicans) was greater than 125 µM and the viability at 48 h, 20 µM [22] was 118%. The Activity (Salmonella typhimurium [23]) was “Non-toxic”, the MIC95 (Staphylococcus aureus [24]) was greater than 125 µM and the MIC95 (Escherichia coli) was greater than 125 µM. The IC50 (HepG2) was greater than 50 µM, the Activity (Salmonella typhimurium [25]) was “Non-toxic” and the viability at 24 h, 20 µM [26] was 98%. It also gave an MIC80 (Pichia kudriavzevii) greater than 125 µM, an inhibition of growth at 0.5 µg/mL [27] of 36% and a selectivity ratio [28] greater than 500. For the same compound, the MIC50 (Lichtheimia corymbifera) was greater than 125 µM, the MIC95 (Staphylococcus aureus [29]) was greater than 125 µM and the solubility at 24 h [30] was 0.067 µM (≈ 0.0249 µg/mL). For the same compound, the Activity [31] was “Active”, the MIC80 (Candida tropicalis) was greater than 125 µM and the MIC99 (Mycobacterium avium [32]) was 16 µM (≈ 5.96 µg/mL). The viability at 24 h, 20 µM [33] was 87.2%.

For O=[N+]([O-])c1cc(CSc2nnc(-c3ccc(Cl)cc3)s2)cc([N+](=O)[O-])c1, the “growth inhibition (GI)” value [1] was “inactive”, the viability at 48 h, 50 µM [2] was 98.5% and the inhibition at 1 µg/mL [3] was 13%. For the same compound, the viability at 48 h, 20 µM [4] was 43.4%, the viability at 48 h, 20 µM [5] was 102% and the MIC99 (Mycobacterium kansasii [6]) was 0.25 µM (≈ 0.102 µg/mL). For the same compound, the MIC95 (Klebsiella pneumoniae [7]) was greater than 125 µM, the inhibition [8] was “inactive” and the MIC99 (Mycobacterium avium [9]) was 8 µM (≈ 3.27 µg/mL). The MIC95 (Klebsiella pneumoniae [10]) was greater than 125 µM, the MIC95 [11] was greater than 125 µM and the Activity [12] was “Dose-dependent effect”. For the same compound, the IC50 [13] was greater than 20 µM, the viability at 48 h, 20 µM [14] was 91.4% and the Stability [15] was “Stable”. For the same compound, the MIC50 [16] was greater than 125 µM, the IC50 (HeLa) was greater than 20 µM and the IC50 (Hepatocyte) was greater than 20 µM. It also gave an MIC50 (Aspergillus fumigatus) greater than 125 µM, a solubility kinetic [17] of 0.54 µM (≈ 0.221 µg/mL) and an MIC99 (Mycobacterium kansasii [18]) of 0.5 µM (≈ 0.204 µg/mL). The IC50 [19] was greater than 20 µM, the inhibition [20] was “inactive” and the MIC80 (Trichosporon asahii) was greater than 125 µM. The MIC99 (Mycobacterium kansasii [21]) was 0.5 µM (≈ 0.204 µg/mL), the MIC80 (Candida albicans) was greater than 125 µM and the viability at 48 h, 20 µM [22] was 108%. For the same compound, the Activity (Salmonella typhimurium [23]) was “Non-toxic”, the MIC95 (Staphylococcus aureus [24]) was greater than 125 µM and the MIC95 (Escherichia coli) was greater than 125 µM. For the same compound, the IC50 (HepG2) was greater than 50 µM, the Activity (Salmonella typhimurium [25]) was “Non-toxic” and the viability at 24 h, 20 µM [26] was 102%. For the same compound, the MIC80 (Pichia kudriavzevii) was greater than 125 µM, the inhibition of growth at 0.5 µg/mL [27] was 12% and the selectivity ratio [28] was greater than 500. It also gave an MIC50 (Lichtheimia corymbifera) greater than 125 µM, an MIC95 (Staphylococcus aureus [29]) greater than 125 µM and a solubility at 24 h [30] of 0.03 µM (≈ 0.0123 µg/mL). The Activity [31] was “Active”, the MIC80 (Candida tropicalis) was greater than 125 µM and the MIC99 (Mycobacterium avium [32]) was 16 µM (≈ 6.54 µg/mL). The viability at 24 h, 20 µM [33] was 92.8%.
